The values that follow come from ChEMBL document CHEMBL1201862, “PubChem BioAssay data set” (2004).

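48-hour exposure; five concentrations; linearly interpolated endpoints. GI50 = concentration required for 50% inhibition of growth.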 Activity calls are given as the source filed them. Cut-off read from the data, not from the text of the source: active = GI50 up to about 1.1 µM and inactive = higher.

Among the test systems are LOX IMVI; UACC-62; HCT-15; MOLT-4; DU-145; NCI-H226; CCRF-CEM; NCI-H522; RPMI-8226; Hs-578T; OVCAR-3; SF-539; CAKI-1; KM12; EKVX; U-251; OVCAR-5; MDA-MB-231; MDA-N.
Common to all, as to experiment: growth of human tumour cells (NCI), 48 h

Turning to `CCOC(=O)C(C(=S)Nc1ccccc1)c1nn2c(=O)cc(C)nc2s1` (stereo not drawn), the GI50 with LOX IMVI is 14.4 µM (inactive); in the test on UACC-62, 23.7 µM (inactive); in the test with HCT-15 it was 27.7 µM; with MOLT-4, 25 µM (inactive); in the test with DU-145, 36.3 µM (inactive); in the test on NCI-H226, 21.7 µM (inactive). Also, the GI50 in the test with CCRF-CEM is 33.8 µM (inactive); in the test with NCI-H522, 22.3 µM (inactive); with RPMI-8226, 26.3 µM (inactive); with Hs-578T it was 41 µM (inactive); in the test with OVCAR-3, 24.5 µM (inactive); with SF-539, 22.9 µM (inactive). The GI50 with CAKI-1 is 20.1 µM (inactive); in the test on KM12, 25.4 µM (inactive); with EKVX it was 21.6 µM (inactive); in the test on U-251 it was 26.7 µM (inactive); in the test with OVCAR-5 it was 35.3 µM (inactive); with MDA-MB-231 it was 31.8 µM (inactive).

`C/C(=N\NC(=S)N1CCCCCC1)c1cccc2cccnc12`: the GI50 with LOX IMVI is 0.767 µM (active); in the test on HCT-15, 0.287 µM; with MOLT-4, 0.134 µM (active); in the test on DU-145, 2.95 µM (inactive); with NCI-H226 it was 0.589 µM (active); in the test on CCRF-CEM, < 0.01 µM (active). Further, the GI50 with NCI-H522 was 0.193 µM (active); in the test with RPMI-8226, 0.109 µM (active); in the test with Hs-578T it was 19.7 µM (inactive); with OVCAR-3, 0.0203 µM (active); in the test on SF-539 it was 0.845 µM (active); in the test on CAKI-1 it was 0.355 µM (active). Moreover, the GI50 with KM12 is 1.42 µM (inactive); in the test with EKVX, 1.29 µM (inactive); in the test with U-251 it was 0.839 µM (active); with OVCAR-5, > 19.9 µM (inactive); with MDA-MB-231, 2.12 µM (inactive).

Regarding `CN(CCS(=O)(=O)N1C(=O)C2CCCN2C(=O)[C@@H]1Cc1ccccc1)C(=O)OCc1ccccc1` (stereo partly drawn), the GI50 with LOX IMVI was 58.3 µM (inactive); in the test with UACC-62, 38.8 µM (inactive); in the test with HCT-15, 58.6 µM; in the test on MOLT-4, 16.5 µM (inactive); in the test on NCI-H226, 37.8 µM (inactive); with CCRF-CEM, 33 µM (inactive). For the same compound, the GI50 in the test with NCI-H522 is 39.5 µM (inactive); with RPMI-8226, 15.1 µM (inactive); with OVCAR-3, 32.6 µM (inactive); in the test on SF-539, > 100 µM (inactive); in the test with CAKI-1, 44.4 µM (inactive); with KM12, 48.2 µM (inactive). Also, the GI50 is 30.9 µM (inactive) in the test on EKVX, 56.2 µM (inactive) in the test with U-251 and > 100 µM (inactive) in the test on OVCAR-5.

Consider `N#Cc1ccc(C(O)C(F)(F)c2nc3ccccc3o2)cc1` (stereo not drawn), for which the GI50 in the test on LOX IMVI was 42.9 µM (inactive); in the test on UACC-62, 40.9 µM (inactive); in the test with HCT-15, more than 100 µM; in the test on MOLT-4 it was 29.2 µM (inactive); in the test on DU-145, 35.7 µM (inactive); in the test on NCI-H226, 32.9 µM (inactive). Also, the GI50 in the test with CCRF-CEM is 45.5 µM (inactive); in the test with RPMI-8226, 31.2 µM (inactive); with Hs-578T, > 100 µM (inactive); in the test on SF-539 it was 43.9 µM (inactive); with CAKI-1, 31 µM (inactive); in the test with KM12, 96.2 µM (inactive). For the same compound, the GI50 with EKVX was > 100 µM (inactive); in the test with U-251 it was > 100 µM (inactive); with MDA-MB-231, 18.9 µM (inactive).

In the case of `CNc1ccccc1S(=O)(=O)c1ccccc1[N+](=O)[O-]`, the GI50 in the test with LOX IMVI is 53 µM (inactive); with UACC-62, 48.8 µM (inactive); in the test on HCT-15 it was 46.3 µM; with MOLT-4 it was 30.8 µM (inactive); in the test on DU-145, > 100 µM (inactive); with NCI-H226, 65.6 µM (inactive). The GI50 is 43.5 µM (inactive) in the test on CCRF-CEM; 26 µM (inactive) in the test on NCI-H522; > 100 µM (inactive) in the test on RPMI-8226; 40.2 µM (inactive) with Hs-578T; 68.4 µM (inactive) in the test with OVCAR-3; > 100 µM (inactive) in the test on SF-539. The GI50 was > 100 µM (inactive) in the test with KM12; > 100 µM (inactive) in the test with EKVX; 69.7 µM (inactive) with U-251; > 100 µM (inactive) in the test on OVCAR-5; > 100 µM (inactive) with MDA-MB-231.

Turning to `O=C(NN1C(=O)C(Cl)C1c1ccc(Cl)cc1)c1c(Cl)c(Cl)c(Cl)c(Cl)c1-c1nc2ccccc2[nH]1` (stereo not drawn), the GI50 is 16.5 µM (inactive) with LOX IMVI; 15.7 µM (inactive) in the test with UACC-62; 17.6 µM in the test with HCT-15; 7.33 µM (inactive) in the test on MOLT-4; 16.4 µM (inactive) with DU-145; 22.1 µM (inactive) in the test on NCI-H226. Moreover, the GI50 with CCRF-CEM was 8.39 µM (inactive); in the test with NCI-H522 it was 13.8 µM (inactive); in the test on Hs-578T, 41.5 µM (inactive); with OVCAR-3, 27.8 µM (inactive); in the test on SF-539 it was 32.4 µM (inactive); with CAKI-1 it was 3.73 µM (inactive). For the same compound, the GI50 in the test with KM12 was 31.4 µM (inactive); in the test with EKVX, 20.7 µM (inactive); in the test on OVCAR-5, 37.2 µM (inactive).

As for `Oc1cccc(-c2cc(=S)ss2)c1`, the GI50 was 14.8 µM (inactive) in the test with LOX IMVI; 18.5 µM (inactive) in the test on UACC-62; 15.1 µM in the test with HCT-15; 3.22 µM (inactive) in the test on MOLT-4; 18 µM (inactive) in the test on NCI-H226; 6.89 µM (inactive) in the test on NCI-H522. The GI50 with RPMI-8226 was 2.24 µM (inactive); in the test with Hs-578T, 16.3 µM (inactive); with SF-539, 19.5 µM (inactive); in the test with CAKI-1, 18.2 µM (inactive); in the test on KM12, 18.6 µM (inactive); with EKVX, 16.1 µM (inactive). Further, the values for the GI50 in the test on U-251, in the test with OVCAR-5 and in the test on MDA-MB-231 were 14.8 µM (inactive), 15.9 µM (inactive) and 14.3 µM (inactive), respectively.

Take `C/C(=C\COP(=O)(O)CP(=O)(O)O)CC/C=C(\C)CNc1ccccc1`: the GI50 with LOX IMVI is > 100 µM (inactive); in the test with UACC-62, > 100 µM (inactive); in the test on HCT-15, more than 100 µM; in the test on MOLT-4 it was > 100 µM (inactive); in the test on DU-145, > 100 µM (inactive); with NCI-H226 it was > 100 µM (inactive). The GI50 with CCRF-CEM, in the test with NCI-H522, in the test on RPMI-8226, in the test on Hs-578T, in the test with OVCAR-3 and with SF-539 was > 100 µM (inactive) throughout. Besides, the GI50 with CAKI-1 was > 100 µM (inactive); with KM12, > 100 µM (inactive); in the test on EKVX it was 15.7 µM (inactive); with U-251, > 100 µM (inactive); in the test with OVCAR-5 it was > 100 µM (inactive); in the test on MDA-MB-231, > 100 µM (inactive).

`CN(C)c1ccc(/C=C2\CCCCCC2=O)cc1`: the GI50 in the test on UACC-62 is 90.4 µM (inactive); in the test on MOLT-4, > 100 µM (inactive); with DU-145, > 100 µM (inactive); in the test on CCRF-CEM, > 100 µM (inactive); in the test with RPMI-8226 it was 94.4 µM (inactive); in the test on OVCAR-3, 71.1 µM (inactive). Besides, the GI50 in the test with SF-539, in the test with CAKI-1, in the test with KM12, in the test on EKVX, in the test with MDA-N and with OVCAR-5 was > 100 µM (inactive) each time. For the same compound, the GI50 in the test on MDA-MB-231 is 32.7 µM (inactive).
